Data: US20260070917A1, “CYCLIN DEPENDENT KINASE DEGRADERS AND METHODS OF USE THEREOF” (Differentiated Therapeutics Inc, priority 2023, published 2026)
Like-named read-outs stand apart in the source and are kept apart here.

Key:
Type in all cases: cell-based
CDK2 = biological target: T1, CDK2 (Homo sapiens, UniProt P24941); assay: HiBit Assay Protocol for CDK2 (HIBIT protein quantification, degradation); conditions: HEK293-CDK2-Hibit cells, compound treatment for 6 hours; for DC50: ABS DC50
T1 construct: host or cells: HEK293-CDK2-Hibit
Method in brief: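 HEK293 cells expressing HiBiT-tagged CDK2 were seeded overnight, then treated 6 h with a 3-fold, 10-point compound dilution series. CDK2 levels were read as luminescence after lytic HiBiT/LgBiT detection, normalised to DMSO-only and medium-only controls, and DC50 derived by curve fitting.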

CCNE1 = biological target: T2, CCNE1 (Homo sapiens, UniProt P24864); assay: HiBit Assay Protocol for CCNE1 (HIBIT protein quantification, degradation); conditions: HEK293-CCNE1-Hibit cells, compound treatment for 6 hours
T2 construct: host or cells: HEK293-CCNE1-Hibit
T2 sequence (P24864 whole entry): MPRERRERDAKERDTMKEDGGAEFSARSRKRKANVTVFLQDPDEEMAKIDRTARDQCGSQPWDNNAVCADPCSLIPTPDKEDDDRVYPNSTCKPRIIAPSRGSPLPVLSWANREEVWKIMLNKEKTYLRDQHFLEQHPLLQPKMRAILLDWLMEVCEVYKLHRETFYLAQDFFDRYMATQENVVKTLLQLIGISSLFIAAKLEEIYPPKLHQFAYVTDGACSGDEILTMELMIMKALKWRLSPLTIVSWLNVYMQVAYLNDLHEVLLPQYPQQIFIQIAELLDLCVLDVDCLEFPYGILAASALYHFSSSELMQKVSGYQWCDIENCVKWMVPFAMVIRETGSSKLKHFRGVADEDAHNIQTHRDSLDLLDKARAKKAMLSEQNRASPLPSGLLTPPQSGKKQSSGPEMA
Method in brief: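 HEK293 cells expressing HiBiT-tagged CCNE1 were seeded overnight, then treated 6 h with a 3-fold, 10-point compound dilution series. HiBiT levels were read by lytic LgBiT luminescence and normalised to DMSO-only (high) and medium-only (low) controls. DC50 was derived by curve fitting.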

CDK9 = biological target: T3, CDK9 (Homo sapiens, UniProt P50750); assay: HiBit Assay Protocol for CDK9 (HIBIT protein quantification, degradation); conditions: HEK293-CDK9-Hibit cells, compound treatment for 6 hours; for Dmax: read-out: CDK9 HIBIT Protein Quantification Maximum
T3 construct: host or cells: HEK293-CDK9-Hibit
T3 sequence (P50750 whole entry): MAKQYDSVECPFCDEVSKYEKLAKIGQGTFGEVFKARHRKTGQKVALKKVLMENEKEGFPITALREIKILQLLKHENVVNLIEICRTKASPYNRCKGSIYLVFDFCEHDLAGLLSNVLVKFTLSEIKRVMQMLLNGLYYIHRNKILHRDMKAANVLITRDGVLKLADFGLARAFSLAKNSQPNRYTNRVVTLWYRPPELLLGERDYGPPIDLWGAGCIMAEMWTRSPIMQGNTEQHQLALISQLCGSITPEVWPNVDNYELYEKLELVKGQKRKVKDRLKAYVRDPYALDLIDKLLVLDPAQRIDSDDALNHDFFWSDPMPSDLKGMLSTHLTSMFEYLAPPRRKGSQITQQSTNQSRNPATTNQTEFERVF
Method in brief: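 HEK293 cells carrying HiBiT-tagged CDK9 treated 6 h with compounds in a 3-fold, 10-point dilution series. CDK9 level read by lytic Nano-Glo HiBiT/LgBiT luminescence and normalized to 0.1% DMSO (high) and medium-only (low) controls. DC50 from curve fitting.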

Row | CDK2 HIBIT Protein Quantification Maximum (CDK2) | CCNE1 HIBIT Protein Quantification Maximum (CCNE1) | Dmax (CDK9; 6 h) | DC50 (CDK2) | DC50 (CDK9; ABS DC50) | Compound | Dmax (CDK9)
1 | 11% | 1% | -2% | – | – | CC1CCCC1N1C(=O)C2(CC2)c2cnc(NC3CCN(S(=O)(=O)N4CC5(CN(CCCCOc6ccc7c(c6)n(C)c(=O)n7C6CCC(=O)NC6=O)C5)C4)CC3)nc21 (centres unmarked) [Compound 143] | –
2 | 75% | 39% | 49% | 1.97 nM | – | CC1CCCC1N1C(=O)C2(CC2)c2cnc(NC3CCN(S(=O)(=O)N4CC5(CN(CC6CCN(c7ccc8c(c7)n(C)c(=O)n8C7CCC(=O)NC7=O)CC6)C5)C4)CC3)nc21 (centres unmarked) [Compound 144] | –
3 | 79% | 25% | 14% | 4.08 nM | – | CC1CCCC1N1C(=O)C2(CC2)c2cnc(NC3CCN(S(=O)(=O)N4CCN(CC5CCN(c6cccc7c6n(C)c(=O)n7C6CCC(=O)NC6=O)CC5)CC4)CC3)nc21 (centres unmarked) [Compound 145] | –
4 | 78% | 44% | 2% | 6 nM | – | Cn1c(=O)n(C2CCC(=O)NC2=O)c2cccc(C3CCN(Cc4cccc(S(=O)(=O)N5CCC(Nc6ncc7c(n6)N([C@@H]6CCC[C@@H](O)C6)C(=O)C76CC6)CC5)c4)CC3)c21 (some centres unmarked) [Compound 148] | –
5 | 69% | 11% | 17% | 13.9 nM | – | Cn1c(=O)n(C2CCC(=O)NC2=O)c2ccc(-c3ccc(Oc4cccc(S(=O)(=O)N5CCC(Nc6ncc7c(n6)N([C@@H]6CCC[C@@H](O)C6)C(=O)C76CC6)CC5)c4)cc3)cc21 (stereo partly drawn) [Compound 149, 3-(5-{4-[3-(4-{7′-[(1R,3R)-3-Hydroxycyclohexyl]-6′-oxospiro[cyclopropane-1,5′-pyrrolo[2,3-d]pyrimidin]-2′-ylamino}piperidin-1-ylsulfonyl)phenoxy]phenyl}-3-methyl-2-oxo-1,3-benzodiazol-1-yl)piperidine-2,6-dione] | –
6 | 67% | 41% | 45% | 12.9 nM | – | Cn1c(=O)n(C2CCC(=O)NC2=O)c2cccc(-c3ccc(Oc4cccc(S(=O)(=O)N5CCC(Nc6ncc7c(n6)N([C@@H]6CCC[C@@H](O)C6)C(=O)C76CC6)CC5)c4)cc3)c21 (some centres unmarked) [Compound 150] | –
7 | 57% | 28% | 17% | 9.42 nM | – | C[C@@H]1CN(S(=O)(=O)c2cccc(CN3CCC(c4ccc5c(N6CCC(=O)NC6=O)nn(C)c5c4)CC3)c2)CC[C@@H]1Nc1ncc2c(n1)N([C@@H]1CCC[C@@H](O)C1)C(=O)C21CC1 [Compound 153, 1-{6-[1-({3-[(3R,4S)-4-{7′-[(1R,3R)-3-Hydroxycyclohexyl]-6′-oxospiro[cyclopropane-1,5′-pyrrolo[2,3-d]pyrimidin]-2′-ylamino}-3-methylpiperidin-1-ylsulfonyl]phenyl}methyl)piperidin-4-yl]-1-methylindazol-3-yl}-1,3-diazinane-2,4-dione] | –
8 | 64% | 31% | 15% | 7.87 nM | – | C[C@@H]1CN(S(=O)(=O)c2cccc(CN3CCC(c4ccc5c(N6CCC(=O)NC6=O)nn(C)c5c4)CC3)c2)CC[C@H]1Nc1ncc2c(n1)N([C@@H]1CCC[C@@H](O)C1)C(=O)C21CC1 [Compound 154] | –
9 | 19% | 14% | 8% | – | – | Cn1nc(N2CCC(=O)NC2=O)c2ccc(C3CCN(Cc4cccc(S(=O)(=O)N5CC[C@@H](Nc6ncc7c(n6)N([C@@H]6CCC[C@@H](O)C6)C(=O)C76CC6)[C@@H](F)C5)c4)CC3)cc21 [Compound 155, 1-{6-[1-({3-[(3S,4R)-3-Fluoro-4-{7′-[(1R,3R)-3-hydroxycyclohexyl]-6′-oxospiro[cyclopropane-1,5′-pyrrolo[2,3-d]pyrimidin]-2′-ylamino}piperidin-1-ylsulfonyl]phenyl}methyl)piperidin-4-yl]-1-methylindazol-3-yl}-1,3-diazinane-2,4-dione] | –
10 | 81% | 44% | 9% | 1.66 nM | – | Cn1nc(N2CCC(=O)NC2=O)c2ccc(C3CCN(Cc4cccc(S(=O)(=O)N5CC[C@H](Nc6ncc7c(n6)N([C@@H]6CCC[C@@H](O)C6)C(=O)C76CC6)[C@H](F)C5)c4)CC3)cc21 [Compound 156] | –
11 | 18% | 14% | 12% | – | – | Cn1nc(N2CCC(=O)NC2=O)c2ccc(C3CCN(Cc4cccc(S(=O)(=O)N5CC[C@H](Nc6ncc7c(n6)N([C@@H]6CCC[C@@H](O)C6)C(=O)C76CC6)[C@@H](F)C5)c4)CC3)cc21 [Compound 157] | –
12 | 75% | 34% | 38% | 25.2 nM | – | Cn1nc(N2CCC(=O)NC2=O)c2ccc(C3CCN(Cc4cc(S(=O)(=O)N5CCC(Nc6ncc7c(n6)N([C@@H]6CCC[C@@H](O)C6)C(=O)C76CC6)CC5)ccn4)CC3)cc21 [Compound 160, 1-[6-(1-{[4-(4-{7′-[(1R,3R)-3-Hydroxycyclohexyl]-6′-oxospiro[cyclopropane-1,5′-pyrrolo[2,3-d]pyrimidin]-2′-ylamino}piperidin-1-ylsulfonyl)pyridin-2-yl]methyl}piperidin-4-yl)-1-methylindazol-3-yl]-1,3-diazinane-2,4-dione] | –
13 | 26% | 38% | 51% | – | 25.3 nM | Cc1ccc(CN2CCC(c3ccc4c(N5CCC(=O)NC5=O)nn(C)c4c3)CC2)cc1S(=O)(=O)N1CCC(Nc2ncc3c(n2)N([C@@H]2CCC[C@@H](O)C2)C(=O)C32CC2)CC1 [Compound 163, 1-[6-(1-{[3-(4-{7′-[(1R,3R)-3-Hydroxycyclohexyl]-6′-oxospiro [cyclopropane-1,5′-pyrrolo[2,3-d]pyrimidin]-2′-ylamino}piperidin-1-ylsulfonyl)-4-methylphenyl]methyl}piperidin-4-yl)-1-methylindazol-3-yl]-1,3-diazinane-2,4-dione] | –
14 | 78% | 44% | 13% | 10.1 nM | – | Cn1nc(N2CCC(=O)NC2=O)c2ccc(C3CCN(Cc4ccnc(S(=O)(=O)N5CCC(Nc6ncc7c(n6)N([C@@H]6CCC[C@@H](O)C6)C(=O)C76CC6)CC5)c4)CC3)cc21 [Compound 165, 1-[6-(1-{[2-(4-{7′-[(1R,3R)-3-Hydroxycyclohexyl]-6′-oxospiro[cyclopropane-1,5′-pyrrolo[2,3-d]pyrimidin]-2′-ylamino}piperidin-1-ylsulfonyl)pyridin-4-yl]methyl}piperidin-4-yl)-1-methylindazol-3-yl]-1,3-diazinane-2,4-dione] | –
15 | 64% | 44% | 18% | 21.3 nM | – | Cn1nc(N2CCC(=O)NC2=O)c2ccc(C3CCN(Cc4cccc(S(=O)(=O)N5CCC(Nc6ncc7c(n6)N([C@@H]6CCC[C@@H](O)C6)C(=O)C76CC6)CC5)n4)CC3)cc21 [Compound 166, 1-[6-(1-{[6-(4-{7′-[(1R,3R)-3-Hydroxycyclohexyl]-6′-oxospiro[cyclopropane-1,5′-pyrrolo[2,3-d]pyrimidin]-2′-ylamino}piperidin-1-ylsulfonyl)pyridin-2-yl]methyl}piperidin-4-yl)-1-methylindazol-3-yl]-1,3-diazinane-2,4-dione] | –

Row | Compound | CDK2 HIBIT Protein Quantification Maximum (CDK2) | CCNE1 HIBIT Protein Quantification Maximum (CCNE1) | Dmax (CDK9; 6 h) | DC50 (CDK2) | DC50 (CDK9; ABS DC50) | Dmax (CDK9)
16 | Cn1c(=O)n(C2CCC(=O)NC2=O)c2ccc(C3CCN(Cc4cccc(S(=O)(=O)N5CCC(Nc6ncc7c(n6)N([C@@H]6CCC[C@@H](O)C6)C(=O)C76CC6)CC5)c4)CC3)cc21 (stereo partly drawn) [Compound 147, 3-[5-(1-{[3-(4-{7′-[(1R,3R)-3-Hydroxycyclohexyl]-6′-oxospiro[cyclopropane-1,5′-pyrrolo[2,3-d]pyrimidin]-2′-ylamino}piperidin-1-ylsulfonyl)phenyl]methyl}piperidin-4-yl)-3-methyl-2-oxo-1,3-benzodiazol-1-yl]piperidine-2,6-dione] | 64% | 13% | – | 11 nM | – | 2%
17 | Cn1nc(N2CCC(=O)NC2=O)c2ccc(C3CCN(Cc4cccc(S(=O)(=O)N5CCC(Nc6ncc7c(n6)N(c6cc(F)ccc6Cl)C(=O)C76CC6)CC5)c4)CC3)cc21 [Compound 162, 1-(6-{1-[(3-{4-[7′-(2-Chloro-5-fluorophenyl)-6′-oxospiro[cyclopropane-1,5′-pyrrolo[2,3-d]pyrimidin]-2′-ylamino]piperidin-1-ylsulfonyl}phenyl)methyl]piperidin-4-yl}-1-methylindazol-3-yl)-1,3-diazinane-2,4-dione] | 75% | 42% | – | 8.03 nM | – | 4%
